Measurements taken from patent US4001218A, “Penicillins” (Bayer Aktiengesellschaft, priority 1972, dated 1977).

What was measured:
E. coli A 261 = assay: MIC, test tube series dilution test, E. coli A 261; format: cell-based; conditions: 24 hours, 37°C
Staph. aureus 133 = format: cell-based, Staphylococcus aureus; conditions: for MIC: Staph. aureus 133, 24 hours, 37°C
Proteus morg. 932 = assay: MIC, test tube series dilution test, Proteus morg. 932; format: cell-based; conditions: 24 hours, 37°C
Enterococcus 9790 = assay: MIC, test tube series dilution test, Enterococcus 9790; format: cell-based; conditions: 24 hours, 37°C
E. coli 14 = format: cell-based; conditions: for MIC: E. coli 14, 24 hours, 37°C
Proteus vulg. 1017 = format: cell-based, Proteus vulgaris; conditions: for MIC: Proteus 1017, 24 hours, 37°C
Psdm. aerug. F 41 = assay: MIC, test tube series dilution test, Psdm. aerug. F 41; format: cell-based, Pseudomonas aeruginosa
Klebsiella 63 = assay: MIC, test tube series dilution test, Klebsiella 63; format: cell-based; conditions: 24 hours' incubation

| Structure (SMILES) | MIC (E. coli A 261) [U/ml] | MIC (Staph. aureus 133) [U/ml] | other results |
| --- | --- | --- | --- |
| CC1(C)S[C@@H]2[C@H](NC(=O)[C@H](NC(=O)c3ccc(NC(=O)CC4CC5CCC4C5)cc3)c3ccccc3)C(=O)N2[C@H]1C(=O)O (single isomer, unassigned) [Example 15, sodium D(-)-α-[4-(2-norbornylacetamido-benzoylamino)]-benzylpenicillin] | > 256 | < 1 | – |
| CC1(C)S[C@@H]2[C@H](NC(=O)[C@H](NC(=O)c3ccc(NC(=O)C4CC4)cc3[N+](=O)[O-])c3ccccc3)C(=O)N2[C@H]1C(=O)O [Example 3, sodium D(-)-α-(4-cyclopropanecarbonylamino-2-nitrobenzoylamino)-benzylpenicillin] | > 256 | – | – |
| CC1(C)S[C@@H]2[C@H](NC(=O)[C@H](NC(=O)c3ccc(NC(=O)C4CC4)c([N+](=O)[O-])c3)c3ccccc3)C(=O)N2[C@H]1C(=O)O [Example 4, sodium D(-)-α-(4-cyclopropanecarbonylamino-3-nitro-benzoylamino)-benzylpenicillin] | > 256 | < 1 | MIC (Proteus morg. 932): > 256 U/ml |
| CC1(C)S[C@@H]2[C@H](NC(=O)[C@H](NC(=O)c3ccc(NC(=O)C4CCC4)cc3[N+](=O)[O-])c3ccccc3)C(=O)N2[C@H]1C(=O)O [Example 6, sodium D(-)-α-(4-cyclobutanecarbonylamino-2-nitro-benzoylamino)-benzylpenicillin] | > 256 | < 1 | – |
| CC1(C)S[C@@H]2[C@H](NC(=O)[C@H](NC(=O)c3ccc(NC(=O)CCC4CCCC4)cc3)c3ccccc3)C(=O)N2[C@H]1C(=O)O [Example 9, sodium D(-)-α-(4-[3-cyclopentylpropionylaminobenzoylamino)]-benzylpenicillin] | > 256 | < 1 | – |
| CC1(C)S[C@@H]2[C@H](NC(=O)[C@H](NC(=O)c3ccc(NC(=O)CCC4CCCCC4)cc3)c3ccccc3)C(=O)N2[C@H]1C(=O)O [Example 10, sodium D(-)-α-[4-(3-cyclohexanepropionylamino-benzoylamino)]-benzylpenicillin] | > 256 | < 1 | MIC (Enterococcus 9790): ~ 16 U/ml; MIC (E. coli 14): < 1 U/ml |
| CC1(C)S[C@@H]2[C@H](NC(=O)[C@H](NC(=O)c3ccc(NC(=O)C4CCCCCC4)cc3)c3ccccc3)C(=O)N2[C@H]1C(=O)O [Example 13, sodium D(-)-α-(4-cycloheptanecarbonylamino-benzoylamino)-benzylpenicillin] | – | < 1 | MIC (E. coli 14): < 1 U/ml |
| CC1(C)S[C@@H]2[C@H](NC(=O)[C@H](NC(=O)c3ccc(NC(=O)c4cc([N+](=O)[O-])cc([N+](=O)[O-])c4)cc3)c3ccccc3)C(=O)N2[C@H]1C(=O)O [Example 19] | > 256 | < 1 | MIC (Proteus vulg. 1017): ~ 16 U/ml; MIC (E. coli 14): < 1 U/ml |
| CC1(C)S[C@@H]2[C@H](NC(=O)[C@H](NC(=O)c3ccc(NC(=O)c4ccc5c(c4)OCO5)cc3)c3ccccc3)C(=O)N2[C@H]1C(=O)O [Example 24] | > 256 | < 1 | – |
| CC1(C)S[C@@H]2[C@H](NC(=O)[C@H](NC(=O)c3ccc(NC(=O)c4ccc([N+](=O)[O-])cc4)cc3[N+](=O)[O-])c3ccccc3)C(=O)N2[C@H]1C(=O)O [Example 27, sodium D(-)-α-[4-(4-nitrobenzoylamino)-2-nitrobenzoylamino]-benzylpenicillin] | > 256 | < 1 | – |
| Cc1cc(C(=O)N[C@@H](C(=O)N[C@@H]2C(=O)N3[C@@H]2SC(C)(C)[C@@H]3C(=O)O)c2ccccc2)ccc1[N+](=O)[O-] [Example 31, sodium D(-)-α-(4-nitro-3-methylbenzoylamino)-benzylpenicillin] | > 256 | < 1 | – |
| Cc1cc(C(=O)N[C@@H](C(=O)N[C@@H]2C(=O)N3[C@@H]2SC(C)(C)[C@@H]3C(=O)O)c2ccccc2)ccc1N [Example 32, sodium D(-)-α-(4-amino-3-methyl-benzoylamino)-benzyl-penicillin] | > 256 | < 1 | – |
| CC(CC(=O)Nc1ccc(C(=O)N[C@@H](C(=O)N[C@@H]2C(=O)N3[C@@H]2SC(C)(C)[C@@H]3C(=O)O)c2ccccc2)cc1)N=[N+]=[N-] (stereo partly drawn) [Example 40] | > 256 | < 1 | – |
| CC1(C)S[C@@H]2[C@H](NC(=O)[C@H](NC(=O)c3ccc(NC(=O)c4cccs4)cc3)c3ccccc3)C(=O)N2[C@H]1C(=O)O [Example 48] | – | < 1 | – |
| CC1(C)S[C@@H]2[C@H](NC(=O)[C@H](NC(=O)c3cccc(NC(=O)C4CC4)c3)c3ccccc3)C(=O)N2[C@H]1C(=O)O [Example 51] | > 256 | < 1 | MIC (E. coli 14): ~ 16 U/ml; MIC (Proteus morg. 932): > 256 U/ml |
| CC1(C)S[C@@H]2[C@H](NC(=O)[C@H](NC(=O)C=Cc3ccc([N+](=O)[O-])cc3)c3ccccc3)C(=O)N2[C@H]1C(=O)O [Example 54] | > 256 | < 1 | – |

| Structure (SMILES) | MIC (E. coli A 261) [U/ml] | MIC (Staph. aureus 133) [U/ml] | other results |
| --- | --- | --- | --- |
| CC1(C)S[C@@H]2[C@H](NC(=O)[C@H](NC(=O)C=Cc3ccc(NC=O)cc3)c3ccccc3)C(=O)N2[C@H]1C(=O)O [Example 55] | – | < 1 | MIC (Proteus vulg. 1017): > 256 U/ml |
| CC1(C)S[C@@H]2[C@H](NC(=O)[C@H](NC(=O)C=Cc3ccc(NC(=O)C4CC4)cc3)c3ccccc3)C(=O)N2[C@H]1C(=O)O [Example 56] | > 256 | < 1 | – |
| CC1(C)S[C@@H]2[C@H](NC(=O)[C@H](NC(=O)C=Cc3ccc(NC(=O)C4CCC4)cc3)c3ccccc3)C(=O)N2[C@H]1C(=O)O [Example 57] | > 256 | < 1 | MIC (E. coli 14): ~ 1 U/ml |
| COc1cc(C(=O)Nc2ccc(SCC(=O)N[C@@H](C(=O)N[C@@H]3C(=O)N4[C@@H]3SC(C)(C)[C@@H]4C(=O)O)c3ccccc3)cc2)cc(OC)c1OC [Example 58] | – | < 1 | MIC (Proteus vulg. 1017): > 256 U/ml; MIC (E. coli 14): ~ 16 U/ml |
| CC1(C)S[C@@H]2[C@H](NC(=O)[C@H](NC(=O)CSc3ccc(NC(=O)C4CC4)cc3)c3ccccc3)C(=O)N2[C@H]1C(=O)O [Example 60] | > 256 | – | MIC (Proteus vulg. 1017): ~ 4 U/ml; MIC (Psdm. aerug. F 41; Psdm. aerug. F 41, 24 hours, 37°C): ~ 256 U/ml |
| CC1(C)S[C@@H]2[C@H](NC(=O)[C@H](NC(=O)CSc3ccc(NC(=O)CC4C=CCC4)cc3)c3ccccc3)C(=O)N2[C@H]1C(=O)O (stereo partly drawn) [Example 62] | > 256 | – | – |
| CC1(C)S[C@@H]2[C@H](NC(=O)[C@H](NC(=O)CNC(=O)c3ccc(NC=O)cc3)c3ccccc3)C(=O)N2[C@H]1C(=O)O [Example 63] | > 256 | < 1 | MIC (Enterococcus 9790): ~ 4 U/ml; MIC (E. coli 14): ~ 1 U/ml; MIC (Proteus morg. 932): > 256 U/ml |
| CC1(C)S[C@@H]2[C@H](NC(=O)[C@H](NC(=O)CNC(=O)c3ccc(NC(=O)C4CCC4)cc3)c3ccccc3)C(=O)N2[C@H]1C(=O)O [Example 65] | > 256 | < 1 | MIC (Proteus morg. 932): > 256 U/ml |
| CC1(C)S[C@@H]2[C@H](NC(=O)[C@H](NC(=O)CNC(=O)c3ccc(NC(=O)C4=CCCCC4)cc3)c3ccccc3)C(=O)N2[C@H]1C(=O)O [Example 67] | – | < 1 | MIC (Proteus vulg. 1017): > 256 U/ml |
| CC1(C)S[C@@H]2[C@H](NC(=O)[C@H](NC(=O)CNC(=O)c3ccc(N=[N+]=[N-])cc3)c3ccccc3)C(=O)N2[C@H]1C(=O)O [Example 68] | > 256 | < 1 | – |
| CC1(C)S[C@@H]2[C@H](NC(=O)[C@H](NC(=O)CNC(=O)c3ccc([N+](=O)[O-])cc3)c3ccccc3)C(=O)N2[C@H]1C(=O)O [Example 69] | > 256 | < 1 | – |
| CC1(C)S[C@@H]2[C@H](NC(=O)[C@H](NC(=O)c3cc(NC=O)cc(NC=O)c3)c3ccccc3)C(=O)N2[C@H]1C(=O)O [Example 71] | > 256 | < 1 | MIC (E. coli 14): ~ 4 U/ml; MIC (Proteus morg. 932): > 256 U/ml |
| CC1(C)S[C@@H]2[C@H](NC(=O)[C@H](NC(=O)c3cc(NC(=O)C4CC4)cc(NC(=O)C4CC4)c3)c3ccccc3)C(=O)N2[C@H]1C(=O)O [Example 72] | > 256 | < 1 | MIC (Enterococcus 9790): ~ 16 U/ml; MIC (Proteus morg. 932): > 256 U/ml |
| CC1(C)S[C@@H]2[C@H](NC(=O)[C@H](NC(=O)c3cc(NC(=O)C4CCC4)cc(NC(=O)C4CCC4)c3)c3ccccc3)C(=O)N2[C@H]1C(=O)O [Example 73] | > 256 | < 1 | – |
| CC1(C)S[C@@H]2[C@H](NC(=O)[C@H](NC(=O)c3ccc(NC(=O)C4CC4)c(NC(=O)C4CC4)c3)c3ccccc3)C(=O)N2[C@H]1C(=O)O [Example 75] | > 256 | < 1 | MIC (Enterococcus 9790): ~ 16 U/ml; MIC (Proteus morg. 932): > 256 U/ml |
| COc1cc(C(=O)Nc2ccc(C=CC(=O)N[C@@H](C(=O)N[C@@H]3C(=O)N4[C@@H]3SC(C)(C)[C@@H]4C(=O)O)c3ccccc3)cc2)cc(OC)c1OC [Example 79, sodium D(-)-α-[4-(3,4,5-trimethoxybenzoylamino-cinnamoylamino)]-benzylpenicillin] | – | – | Activity against Klebs. 63 (minimum inhibitory concentration) (Klebsiella 63): 32-64 U/ml; Activity against Proteus vulg. 1017 (minimum inhibitory concentration) (Proteus vulg. 1017; 24 hours' incubation): 128-256 U/ml; Activity against Psdm. aerug. F 41 (minimum inhibitory concentration) (Psdm. aerug. F 41; 24 hours' incubation): 8-16 U/ml; Activity against E. coli 14 (minimum inhibitory concentration) (E. coli 14; 24 hours' incubation): 1-2 U/ml; Activity against Staph. aureus 133 (minimum inhibitory concentration) (Staph. aureus 133; 24 hours' incubation): < 1 U/ml |
